According to PMC8989888, “Development of optimized drug-like small molecule inhibitors of the SARS-CoV-2 3CL protease for treatment of COVID-19” (Nature Communications, 2022):
Where two headings read alike, the source gives them in different places.

Target: SARS-CoV-2 3CL protease (Severe acute respiratory syndrome coronavirus 2, UniProt P0DTD1)
Type: biochemical
Parameters: Avg: unit not given here
Conditions: for Inhibition at 10 µM: 10 µM compound; for Inhibition at 100 µM: 100 µM compound; for IC50 / LogIC50: Figure S1 and S2
[1] = log of IC50 (µM), dose-response curve fit
[2] = Conc 10 µM, average response of dose-response curve
[3] = Conc 15 µM, average response of dose-response curve
[4] = Conc 20 µM, average response of dose-response curve
[5] = Conc 50 µM, average response of dose-response curve
[6] = Conc 100 µM, average response of dose-response curve
[7] = Conc 200 µM, average response of dose-response curve
[8] = dose-response retest of fragment hits
[9] = dose-response curve of fragment hit
[10] = Conc 10 µM, mean response (inhibition) of dose-response curve
[11] = Conc 15 µM, mean response (inhibition) of dose-response curve
[12] = Conc 20 µM, mean response (inhibition) of dose-response curve
[13] = Conc 50 µM, mean response (inhibition) of dose-response curve
[14] = Conc 100 µM, mean response (inhibition) of dose-response curve
[15] = Conc 200 µM, mean response (inhibition) of dose-response curve

| SMILES | Inhibition at 10 µM [%] | Inhibition at 100 µM [%] | Avg [2] | Avg [3] | Avg [4] | Avg [5] | Avg [6] | Avg [7] | IC50 [8] [µM] | LogIC50 (log of IC50 in µM) | further results |
| --- | --- | --- | --- | --- | --- | --- | --- | --- | --- | --- | --- |
| Cn1cc(CNC(=O)c2cccnc2S)c(C(F)(F)F)n1 [Z1488388701] | 2 | 100 | – | – | – | – | – | – | – | – | Avg (Conc 10 µM): 2.1; Avg (Conc 15 µM): 19.8; Avg (Conc 20 µM): 26.9; Avg (Conc 50 µM): 96.9; Avg (Conc 100 µM): 107.8; Avg (Conc 200 µM): 105; IC50 (dose-response curve fit): 25.7 µM; LogIC50 [1]: 1.41 |
| CC(C)Cc1ncc(CNC(=O)c2cccnc2S)s1 [Z1494348106] | 4 | 100 | – | – | – | – | – | – | – | – | Avg (Conc 10 µM): 3.5; Avg (Conc 15 µM): 37.1; Avg (Conc 20 µM): 49.8; Avg (Conc 50 µM): 100.8; Avg (Conc 100 µM): 102.9; Avg (Conc 200 µM): 93.1; IC50 (dose-response curve fit): 18.8 µM; LogIC50 [1]: 1.275 |
| O=C(NCc1ncccc1F)c1cccnc1S [Z1499268500] | 17 | 100 | – | – | – | – | – | – | – | – | Avg (Conc 10 µM): 17.2; Avg (Conc 15 µM): 49.3; Avg (Conc 20 µM): 94.7; Avg (Conc 50 µM): 100.1; Avg (Conc 100 µM): 91.4; Avg (Conc 200 µM): 94.2; IC50 (dose-response curve fit): 15 µM; LogIC50 [1]: 1.1775 |
| CC(C)OC1CCC(NC(=O)c2cccnc2S)CC1 (centres unmarked) [Z1500153099] | 2 | 96 | – | – | – | – | – | – | – | – | Avg (Conc 10 µM): 2.2; Avg (Conc 15 µM): 13; Avg (Conc 20 µM): 32.4; Avg (Conc 50 µM): 52.9; Avg (Conc 100 µM): 96.3; Avg (Conc 200 µM): 103; IC50 (dose-response curve fit): 37.9 µM; LogIC50 [1]: 1.579 |
| O=C(NCc1ccc(F)c(CO)c1)c1cccnc1S [Z1501229042] | 27 | 100 | – | – | – | – | – | – | – | – | Avg (Conc 10 µM): 26.5; Avg (Conc 15 µM): 32.3; Avg (Conc 20 µM): 50.8; Avg (Conc 50 µM): 101.4; Avg (Conc 100 µM): 101.9; Avg (Conc 200 µM): 89.2; IC50 (dose-response curve fit): 19.9 µM; LogIC50 [1]: 1.299 |
| O=C(NCC1(O)CCc2ccccc21)c1cccnc1S (centres unmarked) [Z1501256406] | 55 | 82 | – | – | – | – | – | – | – | – | Avg (Conc 10 µM): 55.2; Avg (Conc 15 µM): 87.1; Avg (Conc 20 µM): 101.3; Avg (Conc 50 µM): 96.8; Avg (Conc 100 µM): 82.6; Avg (Conc 200 µM): 65.5 |
| O=C(NCCC1=CCOCC1)c1cccnc1S [Z1510476385] | 0 | 99 | 0.1 | 16 | 18.7 | 80.4 | 98.6 | 100.4 | 31.3 | 1.496 | – |
| Cc1cnccc1CCNC(=O)c1cccnc1S [Z1515958452] | 4 | 100 | 4 | -6.1 | 25.7 | 93.3 | 101.4 | 97.8 | 20.6 | 1.315 | – |
| O=C(CCl)N1CCN(c2ccccc2[N+](=O)[O-])CC1 [Z1562119284] | 20 | 90 | 20 | 20 | 26 | 56.4 | 90 | 97.6 | 44.6 | 1.6496 | – |
| O=C(CCl)N1CCOC(c2ccc(F)cc2)C1 (centres unmarked) [Z1562122812] | 31 | 100 | 31.1 | 36.9 | 59.9 | 101.2 | 96.2 | 101.8 | 18.4 | 1.2639 | – |
| N#C/C=C/S(=O)(=O)c1ccc(Cl)cc1 [Z1649581806] | 18 | 95 | 17.8 | 30.7 | 66.2 | 85.5 | 95.1 | 100.5 | 17.8 | 1.251 | – |
| O=C(CCl)c1ccc2c(c1)CCN(C(=O)C(F)(F)F)C2 [Z1723943157] | 42 | 81 | 42.1 | 47.7 | 60.7 | 76.3 | 81 | 92.3 | 14.4 | 1.159 | – |
| Nc1cccnc1S [Z1741977862] | 21 | 100 | 21.4 | 52.3 | 66.1 | 102.9 | 106.8 | 99.2 | 15.2 | 1.183 | – |
| Nc1nccnc1S [Z1868316802] | 21 | 92 | 20.5 | 24.1 | 32.6 | 92.3 | 91.8 | 82.9 | 23.3 | 1.368 | – |
| OCCc1cnc(S)nc1 [Z2064274637] | 5 | 100 | 5.2 | 28.9 | 36.1 | 91.7 | 103 | 105.7 | 23.4 | 1.369 | – |
| CC1(C)C(=O)Nc2ccc(C(=O)CCl)cc21 [Z2160878465] | 7 | 97 | 6.9 | 29.9 | 41.3 | 60 | 96.5 | 106.7 | 28.6 | 1.456 | – |
| O=C(CCl)c1csc(N2CCCCC2)n1 [Z2469673977] | 51 | 100 | 51.4 | 56.3 | 64 | 57.3 | 102 | 104.1 | – | – | – |
| CN1C(=O)CCc2cc(C(=O)CCl)ccc21 [Z2491497303] | 6 | 87 | 5.9 | 25.5 | 13.7 | 51.4 | 86.8 | 97.7 | 48.8 | 1.688 | – |
| CN1Cc2cc(C(=O)CCl)ccc2NC1=O [Z2491497315] | 16 | 95 | 15.7 | 35.9 | 38.8 | 78.6 | 95.1 | 102.1 | 24.2 | 1.383 | IC50 [9]: 24.2 µM; LogIC50 (log10 of IC50 in µM): 1.383 |
| O=C(CCl)N1CCN(Cc2ccsc2)CC1 [Z2650385668] | 15 | 86 | – | – | – | – | – | – | – | – | Avg [10]: 14.7; Avg [11]: 16.7; Avg [12]: 31.9; Avg [13]: 63.6; Avg [14]: 86.4; Avg [15]: 96.9; IC50 [9]: 35.7 µM; LogIC50 (log10 of IC50 in µM): 1.553 |
| Cc1ccccc1CN1CCCN(C(=O)CCl)CC1 [Z2651952322] | 18 | 91 | – | – | – | – | – | – | – | – | Avg [10]: 17.5; Avg [11]: 31.4; Avg [12]: 33.6; Avg [13]: 62.8; Avg [14]: 90.5; Avg [15]: 99.5; IC50 [9]: 33.1 µM; LogIC50 (log10 of IC50 in µM): 1.52 |
| N#Cc1ccnc(S)c1 [Z2687203952] | 12 | 100 | – | – | – | – | – | – | – | – | Avg [10]: 11.5; Avg [11]: 33.9; Avg [12]: 67.8; Avg [13]: 111.2; Avg [14]: 107.8; Avg [15]: 106.7; IC50 [9]: 17.4 µM; LogIC50 (log10 of IC50 in µM): 1.241 |
| Cc1cnc(=S)[nH]c1 [Z2768165643] | 41 | 100 | – | – | – | – | – | – | – | – | Avg [10]: 41.2; Avg [11]: 59.8; Avg [12]: 69.1; Avg [13]: 106.7; Avg [14]: 109.4; Avg [15]: 108.2; IC50 [9]: 13 µM; LogIC50 (log10 of IC50 in µM): 1.114 |
| O=C(CCl)c1ccc(F)c(C(=O)CCl)c1 [Z2768504793] | 3 | 63 | – | – | – | – | – | – | – | – | Avg [10]: 3.4; Avg [11]: 11.1; Avg [12]: 34.1; Avg [13]: 48.5; Avg [14]: 62.9; Avg [15]: 79.1; IC50 [9]: 50.2 µM; LogIC50 (log10 of IC50 in µM): 1.7 |
| C=CS(=O)(=O)c1nc2ccccc2s1 [Z3228044564] | 73 | 100 | – | – | – | – | – | – | – | – | Avg [10]: 73.2; Avg [11]: 84.2; Avg [12]: 91.1; Avg [13]: 103.1; Avg [14]: 104; Avg [15]: 112.9 |
| O=C(CCl)COc1ccc(Cl)cc1 [Z3236282166] | 48 | 100 | – | – | – | – | – | – | – | – | Avg [10]: 47.7; Avg [11]: 63.9; Avg [12]: 86.8; Avg [13]: 98.6; Avg [14]: 103.3; Avg [15]: 106; IC50 [9]: 11.5 µM; LogIC50 (log10 of IC50 in µM): 1.059 |
| CN(C)C(=O)c1csc(C(=O)CCl)c1 [Z3244705145] | 24 | 89 | – | – | – | – | – | – | – | – | Avg [10]: 23.6; Avg [11]: 22.7; Avg [12]: 40.5; Avg [13]: 58.7; Avg [14]: 89; Avg [15]: 99.3; IC50 [9]: 35.9 µM; LogIC50 (log10 of IC50 in µM): 1.555 |
